From ChEMBL document CHEMBL1127869, “Angiotensin II receptor antagonists: imidazoles and pyrroles bearing hydroxymethyl and carboxy substituents” (Bioorg Med Chem Lett, 1994)

Key:
Rattus norvegicus = assay: Compound tested for in vivo inhibitory dose against All-induced pressor response in normotensive, conscious rats; format: functional; details: read-out: ID50 (the source's name)
[1] = molecular target: T1, Type-1 angiotensin II receptor (Bos taurus, UniProt P25104); assay: Inhibition of [125l]-All binding to bovine adrenal cortex; format: tissue-based
T1 sequence (P25104 whole entry): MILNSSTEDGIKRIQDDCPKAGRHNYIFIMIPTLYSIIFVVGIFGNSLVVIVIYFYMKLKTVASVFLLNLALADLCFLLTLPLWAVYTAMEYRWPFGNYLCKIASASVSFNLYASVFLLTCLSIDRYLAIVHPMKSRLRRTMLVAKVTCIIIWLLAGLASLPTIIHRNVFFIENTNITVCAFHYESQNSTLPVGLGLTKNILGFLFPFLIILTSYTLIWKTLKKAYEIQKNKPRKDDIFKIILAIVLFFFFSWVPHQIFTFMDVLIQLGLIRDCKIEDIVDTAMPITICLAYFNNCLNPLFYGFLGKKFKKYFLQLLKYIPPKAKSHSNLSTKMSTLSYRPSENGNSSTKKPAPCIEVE

SMILES | IC50 [1] [nM] | ED50 (Rattus norvegicus) [mg/kg]
CCCCc1nc(Cl)c(CO)n1Cc1ccc(-c2ccccc2C(=O)O)cc1 | 490 | 2.3
CCCCc1nc(Cl)c(C(=O)O)n1Cc1ccc(-c2ccccc2C(=O)O)cc1 |  | 0.21
CCCc1nc(C(=O)O)c(CO)n1Cc1ccc(-c2ccccc2C(=O)O)cc1 |  | 8.8
CCc1nc(CO)c(C(=O)O)n1Cc1ccc(-c2ccccc2C(=O)O)cc1 | 150 | 0.27
CCCc1nc(C(=O)O)c(C(=O)O)n1Cc1ccc(-c2ccccc2C(=O)O)cc1 | 320 | 0.67
CCCc1cc(C(=O)O)c(CO)n1Cc1ccc(-c2ccccc2C(=O)O)cc1 | 2100 | 5.9

Second part, led by results:

IC50 [1] [nM] | SMILES | ED50 (Rattus norvegicus) [mg/kg]
65 | CCCCc1nc(CO)c(C(=O)O)n1Cc1ccc(-c2ccccc2C(=O)O)cc1 | 0.22
4500 | CCCc1cc(COC)c(C(=O)O)n1Cc1ccc(-c2ccccc2C(=O)O)cc1 | 4.2
840 | CCCc1nc(CO)c(C(=O)OCC)n1Cc1ccc(-c2ccccc2C(=O)O)cc1 | 1.5
120 | CCCCc1nc(Cl)c(CO)n1Cc1ccc(-c2ccccc2-c2nnn[nH]2)cc1 [LOSARTAN] | 0.3
58 | CCCc1nc(CO)c(C(=O)O)n1Cc1ccc(-c2ccccc2C(=O)O)cc1 | 0.069
2700 | CCCc1nc(CO)c(CO)n1Cc1ccc(-c2ccccc2C(=O)O)cc1 | 2.1
22 | CCCCc1nc(Cl)c(C(=O)O)n1Cc1ccc(-c2ccccc2-c2nn[nH]n2)cc1 [CARBOXYLIC ACID METABOLITE] | 0.1
